Data taken from ChEMBL document CHEMBL1201862, “PubChem BioAssay data set” (2004).
Activity calls are given as the source filed them.

Columns and labels:
[1] = molecular target: Peroxisome proliferator-activated receptor gamma/Nuclear receptor coactivator 2 (Homo sapiens, UniProt P37231); assay type: functional;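 note: agonist potency for raising coactivator recruitment to the receptor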
[2] = molecular target: T1, Heat shock factor protein 1 (Mus musculus, UniProt P38532); assay: enhancement of HSF1-driven luciferase signal – cell-based, NIH3T3, luminescence, dose retest, confirmation (AID 435004); assay type: functional;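 note: stress induced by proteasome inhibitor MG132 added 30 min after compound; luciferase reporter driven by HSF1 response element in NIH3T3 cells; actives raise luminescence as potentiators of the MG132 stress response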
T1 sequence (P38532 whole entry): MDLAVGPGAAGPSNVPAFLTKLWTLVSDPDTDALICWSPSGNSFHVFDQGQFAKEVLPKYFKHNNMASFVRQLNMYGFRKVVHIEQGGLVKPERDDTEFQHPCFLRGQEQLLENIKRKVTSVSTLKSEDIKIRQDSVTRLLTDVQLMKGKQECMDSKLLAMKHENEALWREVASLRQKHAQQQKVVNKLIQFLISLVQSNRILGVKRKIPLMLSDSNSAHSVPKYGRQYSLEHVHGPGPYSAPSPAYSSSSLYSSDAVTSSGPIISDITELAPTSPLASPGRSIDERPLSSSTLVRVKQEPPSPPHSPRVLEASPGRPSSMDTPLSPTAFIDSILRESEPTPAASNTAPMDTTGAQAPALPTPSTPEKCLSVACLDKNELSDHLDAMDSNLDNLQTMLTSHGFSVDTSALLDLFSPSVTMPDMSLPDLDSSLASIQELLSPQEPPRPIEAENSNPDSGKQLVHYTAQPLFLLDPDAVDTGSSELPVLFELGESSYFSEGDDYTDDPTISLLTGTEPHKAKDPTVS

[3] = molecular target: Peroxisome proliferator-activated receptor gamma/Nuclear receptor coactivator 3 (Homo sapiens, UniProt P37231); assay type: functional;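 note: agonist potency for raising coactivator recruitment to the receptor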
Peroxisome proliferator-activated receptor gamma/Nuclear receptor coactivator 3, sequence (P37231 whole entry): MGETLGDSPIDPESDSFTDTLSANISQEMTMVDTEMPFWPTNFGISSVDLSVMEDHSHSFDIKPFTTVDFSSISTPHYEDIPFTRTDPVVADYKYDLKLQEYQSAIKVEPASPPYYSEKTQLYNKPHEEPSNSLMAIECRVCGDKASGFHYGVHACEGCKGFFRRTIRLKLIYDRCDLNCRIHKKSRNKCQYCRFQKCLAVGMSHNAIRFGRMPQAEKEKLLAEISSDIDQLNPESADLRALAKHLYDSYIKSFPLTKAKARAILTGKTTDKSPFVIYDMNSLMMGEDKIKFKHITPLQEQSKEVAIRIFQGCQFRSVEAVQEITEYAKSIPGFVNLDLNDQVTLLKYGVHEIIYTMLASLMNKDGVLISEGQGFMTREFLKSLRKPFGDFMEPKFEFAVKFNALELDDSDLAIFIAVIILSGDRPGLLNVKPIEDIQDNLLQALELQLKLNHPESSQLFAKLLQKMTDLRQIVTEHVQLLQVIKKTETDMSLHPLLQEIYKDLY
Peroxisome proliferator-activated receptor gamma/Nuclear receptor coactivator 3, sequence (Q9Y6Q9 whole entry, further chain): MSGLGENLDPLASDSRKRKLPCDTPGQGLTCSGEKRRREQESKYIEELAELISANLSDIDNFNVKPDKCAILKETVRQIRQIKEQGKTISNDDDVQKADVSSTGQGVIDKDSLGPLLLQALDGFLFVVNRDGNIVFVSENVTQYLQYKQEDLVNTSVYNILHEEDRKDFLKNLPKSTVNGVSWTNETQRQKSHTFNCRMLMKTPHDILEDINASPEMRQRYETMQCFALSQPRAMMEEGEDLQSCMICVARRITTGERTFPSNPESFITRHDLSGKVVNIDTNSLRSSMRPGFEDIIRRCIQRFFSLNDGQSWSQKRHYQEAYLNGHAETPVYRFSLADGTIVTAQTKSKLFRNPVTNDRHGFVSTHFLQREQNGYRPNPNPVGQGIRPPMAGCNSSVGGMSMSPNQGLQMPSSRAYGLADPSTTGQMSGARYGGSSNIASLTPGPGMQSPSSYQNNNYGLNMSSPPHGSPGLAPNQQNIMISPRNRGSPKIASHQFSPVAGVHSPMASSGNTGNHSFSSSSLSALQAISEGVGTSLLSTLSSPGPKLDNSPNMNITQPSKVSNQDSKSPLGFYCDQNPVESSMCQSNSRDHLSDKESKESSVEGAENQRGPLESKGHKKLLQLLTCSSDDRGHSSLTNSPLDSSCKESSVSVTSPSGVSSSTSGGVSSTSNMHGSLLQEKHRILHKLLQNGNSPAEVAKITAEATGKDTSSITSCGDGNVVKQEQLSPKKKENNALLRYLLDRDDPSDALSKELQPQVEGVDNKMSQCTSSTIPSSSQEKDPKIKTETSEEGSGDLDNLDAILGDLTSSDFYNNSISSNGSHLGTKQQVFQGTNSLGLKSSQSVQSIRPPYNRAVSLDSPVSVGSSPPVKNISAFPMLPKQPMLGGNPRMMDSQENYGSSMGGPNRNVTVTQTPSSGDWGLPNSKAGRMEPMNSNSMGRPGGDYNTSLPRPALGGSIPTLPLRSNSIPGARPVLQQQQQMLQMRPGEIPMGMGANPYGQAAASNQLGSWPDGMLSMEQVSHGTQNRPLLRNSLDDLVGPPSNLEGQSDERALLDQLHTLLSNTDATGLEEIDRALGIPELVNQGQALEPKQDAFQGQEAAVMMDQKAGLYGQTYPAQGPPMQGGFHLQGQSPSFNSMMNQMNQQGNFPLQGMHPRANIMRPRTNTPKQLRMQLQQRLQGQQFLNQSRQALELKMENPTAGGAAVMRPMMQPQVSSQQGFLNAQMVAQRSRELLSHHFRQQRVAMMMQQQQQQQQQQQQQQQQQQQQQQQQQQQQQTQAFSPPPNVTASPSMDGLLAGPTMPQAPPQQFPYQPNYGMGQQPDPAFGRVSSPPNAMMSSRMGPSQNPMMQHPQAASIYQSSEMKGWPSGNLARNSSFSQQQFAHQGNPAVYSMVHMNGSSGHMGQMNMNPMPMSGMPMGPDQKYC

[4] = molecular target: Peroxisome proliferator-activated receptor gamma/Nuclear receptor coactivator 1 (Homo sapiens, UniProt P37231); assay type: functional;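 note: agonist potency as compounds enhance coactivator SRC-1 recruitment to PPARgamma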
Cytochrome P450 2C19 = Cytochrome P450 2C19 (Homo sapiens, UniProt P33261); assay: qHTS Assay for Inhibitors and Substrates of Cytochrome P450 2C19. [Related pubchem assays: 410 ]; assay type: ADME; details: read-out: Potency
Cytochrome P450 2C19, sequence (P33261 whole entry): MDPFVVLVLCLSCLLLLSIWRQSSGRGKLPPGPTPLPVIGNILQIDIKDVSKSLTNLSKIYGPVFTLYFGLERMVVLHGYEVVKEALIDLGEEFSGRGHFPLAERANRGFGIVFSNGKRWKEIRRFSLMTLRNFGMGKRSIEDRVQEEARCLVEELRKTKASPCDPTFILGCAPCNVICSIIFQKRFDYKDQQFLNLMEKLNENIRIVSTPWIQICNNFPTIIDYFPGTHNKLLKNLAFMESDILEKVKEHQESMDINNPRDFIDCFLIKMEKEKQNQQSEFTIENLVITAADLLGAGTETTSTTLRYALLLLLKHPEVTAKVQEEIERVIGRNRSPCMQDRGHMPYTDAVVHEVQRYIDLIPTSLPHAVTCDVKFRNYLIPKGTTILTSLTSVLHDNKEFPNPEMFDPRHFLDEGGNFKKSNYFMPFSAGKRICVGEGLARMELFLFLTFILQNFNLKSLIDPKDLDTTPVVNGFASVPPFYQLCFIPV

Cytochrome P450 2C9 = Cytochrome P450 2C9 (Homo sapiens, UniProt P11712); details: Potency
[5] = fluconazole-exposed Candida albicans growth modulators – fluorescence, retest, confirmation (AID 2467); assay type: functional, cell-based
[6] = antiviral protection against BTV-induced cell death – arbovirus, BSR cells, confirmation (AID 1250); assay type: functional;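 note: protection from viral cytopathic effect measured as cell viability by ATP luminescence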
[7] = NIH-3T3 fibroblast cytotoxicity, dose response, cytotoxicity control, cell-based, fluorescence, Alamar Blue, secondary assay (AID 2327); assay type: functional;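 note: NIH-3T3 mouse fibroblasts cultured with fluconazole at 8 µg/mL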
[8] = molecular target: T2, Alkaline phosphatase, tissue-nonspecific isozyme (Homo sapiens, UniProt P05186)
T2 sequence (P05186 whole entry): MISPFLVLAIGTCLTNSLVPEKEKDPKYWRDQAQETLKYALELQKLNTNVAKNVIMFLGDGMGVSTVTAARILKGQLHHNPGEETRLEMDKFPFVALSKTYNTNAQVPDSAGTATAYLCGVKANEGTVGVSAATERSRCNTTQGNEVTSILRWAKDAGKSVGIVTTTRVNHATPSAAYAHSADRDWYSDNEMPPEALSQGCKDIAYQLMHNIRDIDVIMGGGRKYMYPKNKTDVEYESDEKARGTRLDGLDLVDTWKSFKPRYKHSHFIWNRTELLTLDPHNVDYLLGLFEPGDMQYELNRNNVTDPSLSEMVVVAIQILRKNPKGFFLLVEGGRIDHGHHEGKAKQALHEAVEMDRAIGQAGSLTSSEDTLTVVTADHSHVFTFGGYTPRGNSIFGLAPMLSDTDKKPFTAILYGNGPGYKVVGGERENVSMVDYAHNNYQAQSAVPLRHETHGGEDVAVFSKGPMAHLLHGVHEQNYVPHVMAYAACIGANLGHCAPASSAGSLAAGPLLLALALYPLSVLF

[9] = molecular target: T3, Short transient receptor potential channel 4 (Mus musculus, UniProt Q9QUQ5); assay: calcium entry via TRPC4 opening agents – cell-based, HEK293 TRPC4/mu-opioid, Fluo-4 calcium, dose response (AID 434937); assay type: functional
T3 sequence (Q9QUQ5 whole entry): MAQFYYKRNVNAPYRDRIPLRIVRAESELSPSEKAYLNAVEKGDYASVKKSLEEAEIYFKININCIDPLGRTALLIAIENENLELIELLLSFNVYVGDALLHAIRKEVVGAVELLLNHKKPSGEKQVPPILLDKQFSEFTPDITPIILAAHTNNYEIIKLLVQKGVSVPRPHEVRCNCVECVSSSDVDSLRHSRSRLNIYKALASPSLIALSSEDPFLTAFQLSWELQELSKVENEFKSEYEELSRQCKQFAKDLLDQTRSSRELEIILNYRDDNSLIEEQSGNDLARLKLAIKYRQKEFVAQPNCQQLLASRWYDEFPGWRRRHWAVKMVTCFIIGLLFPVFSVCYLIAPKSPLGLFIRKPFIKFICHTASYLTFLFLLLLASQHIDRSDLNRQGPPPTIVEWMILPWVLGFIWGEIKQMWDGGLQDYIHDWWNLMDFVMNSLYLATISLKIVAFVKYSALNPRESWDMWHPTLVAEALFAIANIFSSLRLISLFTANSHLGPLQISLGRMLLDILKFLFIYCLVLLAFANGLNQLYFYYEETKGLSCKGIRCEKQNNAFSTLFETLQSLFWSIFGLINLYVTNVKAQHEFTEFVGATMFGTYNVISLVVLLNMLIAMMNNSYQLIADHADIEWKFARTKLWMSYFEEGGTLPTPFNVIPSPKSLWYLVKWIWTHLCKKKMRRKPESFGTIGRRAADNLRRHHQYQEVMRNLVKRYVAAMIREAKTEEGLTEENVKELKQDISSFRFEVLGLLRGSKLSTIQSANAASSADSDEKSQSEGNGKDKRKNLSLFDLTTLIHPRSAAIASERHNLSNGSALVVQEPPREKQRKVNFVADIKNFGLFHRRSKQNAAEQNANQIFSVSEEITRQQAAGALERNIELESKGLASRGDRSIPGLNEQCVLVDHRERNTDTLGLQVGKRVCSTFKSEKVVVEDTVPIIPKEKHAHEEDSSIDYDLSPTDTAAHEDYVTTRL

[10] = molecular target: Sphingosine 1-phosphate receptor 2 (Homo sapiens, UniProt O95136); assay: Dose Response Cell Based Assay for Agonists of the S1P2 Receptor of Purchased Analogues. [Related pubchem assays: 729, 843, 854, 736 ]; assay type: functional
Sphingosine 1-phosphate receptor 2, sequence (O95136 whole entry): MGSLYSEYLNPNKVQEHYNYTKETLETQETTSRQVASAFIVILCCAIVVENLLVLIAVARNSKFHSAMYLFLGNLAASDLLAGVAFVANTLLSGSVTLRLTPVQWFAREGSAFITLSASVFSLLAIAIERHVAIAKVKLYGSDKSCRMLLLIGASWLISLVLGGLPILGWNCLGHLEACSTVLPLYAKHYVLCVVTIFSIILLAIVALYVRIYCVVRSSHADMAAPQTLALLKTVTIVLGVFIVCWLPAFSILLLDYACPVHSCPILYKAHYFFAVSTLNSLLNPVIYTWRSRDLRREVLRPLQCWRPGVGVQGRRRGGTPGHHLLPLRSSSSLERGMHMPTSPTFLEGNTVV

[11] = Trypanosoma cruzi growth suppression in host cells – NIH3T3 host cells, beta-gal luminescence, confirmation (AID 2044); assay type: functional, cell-based;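 note: intracellular parasites grown in NIH/3T3 mouse fibroblasts as host cells; luminescent beta-galactosidase reporter signal from transgenic T. cruzi replicating inside host cells; inhibitors lower the luminescence signal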
[12] = NIH3T3 cell viability loss – ATP luminescence, mouse fibroblasts, counter-screen, dose response (AID 2010); assay type: functional, cell-based;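 note: cells exposed to compound for about 90 hours before reading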
[13] = molecular target: Voltage-gated inwardly rectifying potassium channel KCNH2 (Homo sapiens, UniProt Q12809); assay: concentration-dependent hERG rescue from blockers – cell-based, thallium flux, dose response (AID 2121); assay type: ADME
HeLa = assay: viability loss in HeLa cells – cell-based, 24 h, cherry-picked samples, cytotoxicity control, dose response (AID 504726); assay type: functional; details: Homo sapiens;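 note: potency for cytotoxicity as loss of luminescence signal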
Salmon testes DNA = assay: acridine orange-DNA binding displacement – biochemical, fluorescence polarization, cherry-picked samples, set 2, artefact control for KSHV LANA DNA-binding inhibitor project, dose response (AID 504727); set-up: species or system Salmonidae
Bcl-2-like protein 10 = molecular target: T4, Bcl-2-like protein 10 (Homo sapiens, UniProt Q9HD36); assay: Bcl-B/TR3 peptide binding disruption – biochemical, fluorescence polarization, FITC-TR3 peptide, selectivity assay for Bfl-1 inhibitor project, primary screen (AID 748);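 note: fluorescence polarization from a fluorescein-labelled TR3 peptide binding purified Bcl-B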
T4 sequence (Q9HD36 whole entry): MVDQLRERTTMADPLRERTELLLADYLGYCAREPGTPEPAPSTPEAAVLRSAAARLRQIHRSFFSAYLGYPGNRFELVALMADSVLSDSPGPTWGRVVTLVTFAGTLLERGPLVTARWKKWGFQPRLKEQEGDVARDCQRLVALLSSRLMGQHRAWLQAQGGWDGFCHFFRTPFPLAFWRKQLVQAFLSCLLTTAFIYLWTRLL

Peroxisome proliferator-activated receptor gamma/Nuclear receptor coactivator 2, sequence (P37231 whole entry): as the sequence (P37231 whole entry) above
Peroxisome proliferator-activated receptor gamma/Nuclear receptor coactivator 2, sequence (Q15596 whole entry, further chain): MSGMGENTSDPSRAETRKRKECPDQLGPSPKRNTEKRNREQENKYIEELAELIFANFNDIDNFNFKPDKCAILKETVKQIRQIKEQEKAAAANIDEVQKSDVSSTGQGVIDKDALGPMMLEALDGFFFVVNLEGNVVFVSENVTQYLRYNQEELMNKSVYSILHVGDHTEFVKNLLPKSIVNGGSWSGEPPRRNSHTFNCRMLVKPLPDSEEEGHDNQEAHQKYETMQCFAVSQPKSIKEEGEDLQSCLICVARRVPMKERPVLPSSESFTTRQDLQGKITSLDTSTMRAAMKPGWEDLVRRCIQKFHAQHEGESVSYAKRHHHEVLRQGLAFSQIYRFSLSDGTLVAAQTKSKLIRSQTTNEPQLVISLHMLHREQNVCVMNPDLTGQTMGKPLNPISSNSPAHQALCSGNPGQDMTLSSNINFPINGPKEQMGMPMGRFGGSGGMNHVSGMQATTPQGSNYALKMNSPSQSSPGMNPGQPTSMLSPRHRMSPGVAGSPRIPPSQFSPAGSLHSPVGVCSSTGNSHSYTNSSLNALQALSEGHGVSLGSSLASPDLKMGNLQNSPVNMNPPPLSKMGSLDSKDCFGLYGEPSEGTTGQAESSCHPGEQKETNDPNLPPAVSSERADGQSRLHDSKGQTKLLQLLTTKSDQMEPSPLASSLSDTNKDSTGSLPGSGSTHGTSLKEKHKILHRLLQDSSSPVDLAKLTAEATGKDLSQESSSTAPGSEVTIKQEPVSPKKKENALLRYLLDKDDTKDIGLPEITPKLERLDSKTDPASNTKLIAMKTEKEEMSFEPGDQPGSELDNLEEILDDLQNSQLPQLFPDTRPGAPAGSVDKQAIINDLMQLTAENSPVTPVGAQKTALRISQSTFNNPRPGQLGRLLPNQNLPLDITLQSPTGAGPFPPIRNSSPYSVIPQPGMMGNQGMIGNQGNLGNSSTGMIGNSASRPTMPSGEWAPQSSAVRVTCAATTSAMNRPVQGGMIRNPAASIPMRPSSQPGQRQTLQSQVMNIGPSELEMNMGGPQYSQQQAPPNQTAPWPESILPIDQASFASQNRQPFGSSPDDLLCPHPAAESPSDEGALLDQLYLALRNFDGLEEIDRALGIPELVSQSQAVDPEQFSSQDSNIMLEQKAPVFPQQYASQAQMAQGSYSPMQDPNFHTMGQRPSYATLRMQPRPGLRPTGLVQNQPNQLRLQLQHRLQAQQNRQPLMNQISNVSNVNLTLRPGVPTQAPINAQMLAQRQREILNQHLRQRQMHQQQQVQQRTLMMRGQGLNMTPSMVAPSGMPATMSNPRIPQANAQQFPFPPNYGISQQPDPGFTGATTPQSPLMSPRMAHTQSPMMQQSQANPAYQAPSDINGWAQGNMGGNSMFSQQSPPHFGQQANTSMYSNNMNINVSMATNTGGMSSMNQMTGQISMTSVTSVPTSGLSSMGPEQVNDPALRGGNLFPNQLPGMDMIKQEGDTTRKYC

Which EC50 [1] does the source give for `O=C(COC(=O)c1ccccc1C(=O)c1ccccc1)NCCc1ccccc1` here?
Its EC50 is > 79.4 µM (not active).

And the EC50 [2]?
Its EC50 is > 260 µM (inactive).

What about the EC50 [3] of the same compound?
Its EC50 is > 79.4 µM (not active).

What about the EC50 [4] of the same compound?
The EC50 was > 79.4 µM (not active).

Which AC50 (Cytochrome P450 2C19) does the source give for `CC(C)[C@@H](CC(=O)N[C@@H]1CCCC[C@H]1C(=O)N[C@H](CC(=O)N[C@@H](CCC(=O)O)CC(=O)O)Cc1ccccc1)NC(=O)C[C@H](CO)NC(=O)[C@@H]1CCCC[C@H]1N` here?
The AC50 was 39.8 µM (inconclusive).

What about the AC50 (Cytochrome P450 2C9) of the same compound?
The AC50 was 39.8 µM (inconclusive).

With `O=C(CCCn1c(=O)[nH]c2ccc(Br)cc2c1=O)NCc1ccc(Cl)cc1` as the compound, how does the EC50 [1] read?
Its EC50 is > 79.4 µM (not active).

What about the EC50 [3] of the same compound?
The EC50 was > 79.4 µM (not active).

And the EC50 [4]?
Its EC50 is > 79.4 µM (not active).

What does the source list for `Cc1ccc2nc(-c3ccccc3Cl)cc(C(=O)Nc3cc(C)on3)c2c1`?
EC50 [5]: 3.33 µM (active); IC50 [6]: 45.5 µM (active); EC50 [7]: > 160 µM (inactive)

With `COc1ccc(-n2cc(CNCCc3nc(C)c[nH]3)c(-c3ccccc3Cl)n2)cc1` as the compound, how does the EC50 [8] read?
Its EC50 is 66.1 µM (not active).

And the EC50 [9]?
The EC50 was 5.96 µM (active).

For `Cc1cc(C(=O)COC(=O)CN2C(=O)NC(C)(C)C2=O)c(C)n1Cc1ccccc1`, which EC50 [10] is on record?
The EC50 was > 30 µM (not active).

For `Cc1cccc(Cn2c(O)c(N=NC(S)=Nc3ccccc3F)c3ccccc32)c1`, which EC50 [11] is on record?
Its EC50 is 0.663 µM (active).

And the EC50 [12]?
Its EC50 is 2.68 µM (active).

And the EC50 [13]?
Its EC50 is 1.09 µM (active).

With `Cc1nnc2sc(-c3csc4c3CCCC4)nn12` as the compound, how does the AC50 (HeLa) read?
Its AC50 is 26.3 µM (active).

And the AC50 (Salmon testes DNA)?
Its AC50 is 73.6 µM (active).

For `O=C1NC(=O)[C@]2(Cc3ccccc3N3CCN(c4ccccc4)CC32)C(=O)N1c1ccccc1` (stereo partly specified), which IC50 (Bcl-2-like protein 10) is on record?
The IC50 was 54 µM (inactive).
